Data set [1] relates to NF-κB. Nature of the data set: TPA-induced NF-κB activation by EMSA in Jurkat cells. Conditions: for IC90: read-out: NF-κB inhibition IC90, TPA 25 ng/ml; for TPA-induced NF-κB activation at 500 μM: 500 μM for 1 hour then TPA 25 ng/ml; for concentrations found to inhibit NF-κB activation: FIG. 10.
Method: (§1) Three hours after treatment, whole cell extracts were prepared and analyzed by EMSA (Electrophoretic Mobility Shift Assay) as described in Amici et al., 1995, supra. After a 20 minute incubation at room temperature, HSF-HSE or NF-κB-DNA-complexes were analyzed by nondenaturing 4% polyacrylamide gel electrophoresis and autoradiography. The amount of shifted HSE probe and NF-κB probe, an indicator of HSF DNA-binding activity and NF-κB activity, respectively, were quantitated by Molecular Dynamics Phospholmager (MDP) analysis.
(§2) At different times or three hours after treatment, whole cell extracts were prepared and analyzed by EMSA (Electrophoretic Mobility Shift Assay) as described in Amici et al., 1995, supra. Briefly, extracts (10 μg/sample) were mixed with 0.1 ng of a ^32P-NF-κB element or ^32P—HSE oligonucleotide and 0.5 μg of poly(dI-dC) (Pharmacia Biotech Inc.) in 25 μl of binding buffer (10 nM Tris-Cl, pH 7.8, 50 mM NaCl, 1 mM EDTA, 0.5 mM dithiothreitol, 5% glycerol). After a 20 minute incubation at room temperature, HSF-HSE or NF-κB-DNA-complexes were analyzed by nondenaturing 4% polyacrylamide gel electrophoresis and autoradiography. The amount of shifted HSE probe and NF-κB probe, an indicator of HSF DNA-binding activity and NF-κB activity, respectively, were quantitated by Molecular Dynamics Phospholmager (MDP) analysis.
(§3) Jurkat cells were incubated with the compounds listed in Table 1 (infra) or reference diluent at different concentrations for 1 hour and then were stimulated with TPA (25 ng/ml). After 1 hour at 37° C. the whole-cell extracts were prepared and subjected to EMSA to determine NF-κB and HSF activation. The levels of binding-DNA activity of NF-κB were quantified with Molecular Dynamics Phosphorlmager analysis.
Data set [2] concerns vesicular stomatitis virus (VSV), Indiana serotype (Orsay). The data set is classed as cell-based. The conditions noted are these: MA104 cells.
For data set [3], the system named is VSV proteins. The format is cell-based, vesicular stomatitis virus. The conditions noted are these: VSV-infected MA104 cells, [35S]-methionine, SDS-PAGE.
Data set [4] relates to heat shock transcription factor (HSF). Description: HSF activation by EMSA in K562 cells. Conditions: 500 μM.
Method: K562 human erythroleukemia cells, monolayers of monkey kidney cells (MA104 cells), and Jurkat cells were grown in RPMI 1640 medium supplemented with 10% fetal calf serum and antibiotics at 37° C. in a 5% CO2 humidified atmosphere (Amici et al., 1995, Cancer Research 55: 14452-4457).
At different times following 2-cyclopenten-1-one treatment or 3 hours following heat shock, whole cell extracts were prepared and analyzed by EMSA (Electrophoretic Mobility Shift Assay) as described in Amici et al., 1995, supra.
For data set [5] the test system is unchanged. Nature of the data set: HSF activation by EMSA in Jurkat cells. Conditions: for HSF activation at 500 μM: 500 μM for 1 hour then TPA; for concentrations found to activate HSF: TPA 25 ng/ml, FIG. 10. (A gel shift assay detects complexes by their altered migration in electrophoresis.)
Method: as §1, §2, §3
In data set [6] the test system is HSP70 gene transcription. Description: Transcription run-on assay in isolated K562 nuclei.
Method: In vitro run-on transcription reactions were performed in isolated K562 nuclei as described in Banerji et al, 1984, Mol. Cell. […] The vector plasmid (pBluescript) was used as a non-specific hybridization control. Following hybridization, the filters were visualized by autoradiography and the radioactivity was quantitated by MDP analysis. The values are expressed as arbitrary units obtained by comparing transcription rates to control levels.
The subject of data set [7] is HSP70. Nature of the data set: HSP70 and total protein synthesis in K562 cells ([35S]-methionine). Conditions: 500 μM.
Method: K562 cells treated with 500 μM 2 cyclopenten-1-one for different times were pulse-labeled with L-[^35S]-methionine (10 μCi/10^6 cells) for 1 hour. Cells were washed with phosphate buffered saline (PBS) and lysed with 400 μl of lysis buffer (20 nM Tris-Ci, pH 7.4, 0.1 M NaCl, 5 mM MgCl2, 1% Nonidet P-40, 0.5% SDS) containing protease inhibitors. After cell lysis, the radioactivity incorporated into trichloroacetic acid-insoluble material was determined, and an aliquot of samples containing the same amount of radioactivity were analyzed by 10% SDS-PAGE and autoradiography. HSP70 synthesis was determined by densitometric analysis of the autoradiograms. Total protein synthesis was determined as [^35S]-methionine incorporation into TCA-insoluble material (Amici et al., 1993, Exp. Cell. Res. 207. 230-234).
The test system of data set [8] is HSP90 and HSP70 gene transcription. Description: Transcription run-on assay in isolated Jurkat nuclei. The format is cell-based, human.
In data set [9] the test system is Influenza A virus A/PR8/34 (H1N1) (PR8 virus). Description: PR8 influenza virus replication in MDCK cells (HAU and CPE50%). The format is cell-based.
Data set [10] deals with HSP70. Description: Cellular and heat shock protein synthesis in MDCK cells. The format is cell-based, canine.
In data set [11] the test system is PR8 influenza virus proteins. The data set is classed as cell-based, Influenza A virus.
The test system of data set [12] is PR8 influenza virus. Nature of the data set: Survival and body weight of PR8-infected Balb/c mice. The data set is classed as in vivo.
Data set [13] has as its system PR8 virus. Description: Virus titer in the lungs of PR8-infected mice. The data set is classed as in vivo, Balb/c mice. Conditions: 10 μg/mouse/day i.p., four days after infection with 1 HAU PR8 virus/mouse.
Data set [14] has as its system MDCK cells.
For data set [15] the following is noted: 10 μg/day/mouse i.p., for 4 days.

Entries after “also recorded” stand apart in the source; their conditions may differ. Like-named read-outs stand apart in the source and are kept apart here.

As for `CC(=O)NC(Cc1ccccc1)C(=O)Oc1ccc2ccccc2c1` (racemic) [APNE, N-acethyl-DL-phenylalanine-β-napthylester], the IC90 in data set [1] came to 300 µM.

With `O=C1C=CCC1` [2-cyclopenten-1-one], in data set [2] (24 h p.i., lower end of 100-500 μM), the “inhibition of production of VSV infectious particles with respect to control” value (“inhibition of production … to control” below) was 10 times. Besides, in [2] (24 h p.i., upper end of 100-500 μM), the “inhibition of production … to control” value is recorded as “more than 1000 times”. Moreover, the “effect on VSV protein synthesis” value in data set [3] is “selective block of the viral protein synthesis”. Besides, in data set [4], the “less activated HSF at 24 hours than at 9 hours after treatment” value is listed as “Approximately 50%”, the “time after treatment at which activation of HSF was detected” value came to 1.5 h and the “time after treatment of maximum levels of HSF activation” value came out at 9 h. Moreover, the “HSF activation at 500 μM” value in [5] (EMSA) is listed as “detected”. Besides, the “HSF activation at 125 μM” value in data set [5] (same samples as NF-κB EMSA) is reported as “detectable”. Further, in [6], the “HSP70 mRNA transcription by 24 hours after treatment” value is listed as “decreased”; the “time after treatment at which HSP70 mRNA transcription was detected” value was 1.5 h; the “time after treatment at which HSP70 transcription rates were maximal” value was 6 to 9 h; the “transcription of other stress proteins (HSC70, GRP78/BiP, heme-oxygenase)” value is on record as “not affected”. In data set [1], the “TPA-induced NF-κB activation at 500 μM” value is given as “not detectable; also recorded: inhibits TPA-induced NF-κB activation”. For the same molecule, the “lowest concentration inhibiting NF-κB activation by TPA” value in [1] (TPA 25 ng/ml) is 125 µM. Further, the “HSP70 protein synthesis versus cellular protein synthesis” value in data set [7] was “selectively stimulate HSP70 protein synthesis”.

On to `O=c1oc(Cl)c(Cl)c2ccccc12` [DCIC, 3,4-dichloro-iso-coumarine], for which the “inhibition of production … to control” value in data set [2] (lower end of 5-45 μM) worked out at 50%. Also, the “inhibition of production … to control” value in data set [2] (upper end of 5-45 μM) is on record as “more than 98%”. Moreover, the “effect on VSV protein synthesis” value in data set [3] is given as “selective block of the viral protein synthesis”. Further, in data set [8], the “HSP90 and HSP70 mRNA transcription by 24 hours after treatment” value is recorded as “decreased”; the “selectivity of stress protein induction (HSP90, Grp78, HSC70, HSP70)” value was “selectively induces the expression of HSP90 and HSP70”; the “time after treatment at which HSP90 and HSP70 mRNA transcription were detected” value was found to be 1 h; the “time after treatment at which HSP90 and HSP70 transcription rates were maximal” value is reported as “about 3 hours”. In [5] (5 μM, EMSA), the “duration of HSF activation following initiation of treatment” value stood at 12 h, the “time after treatment at which activation of HSF was detected” value amounted to 1 h and the “time after treatment of maximum levels of HSF activation” value amounted to 3 h. For the same molecule, the “concentrations found to activate HSF” value in data set [5] (EMSA) is 5 to 10 µM. Besides, the “concentrations found to inhibit NF-κB activation” value in [1] (TPA 25 ng/ml) fell in the range of 5 to 10 µM. For the same molecule, the IC90 in [1] is 5.5 µM.

As to `CCCCC[C@H](O)/C=C/[C@H]1C=CC(=O)[C@@H]1CCCCCCC(=O)O` [PGA1, Prostaglandin A1], the “effect on PR8 virus replication, comparison of prostaglandins” value in data set [9] is “only modestly and transiently inhibited”. Moreover, the “decrease of PR8 virus yield up to 48 hours p.i.” value in [9] (MDCK cells, 10 μg/ml, data not shown) is reported as “more than 90 % of control”.

For `O=C1CCCC1` [cyclopentanone, reference compound], the “HSF activation at 500 μM” value in data set [5] (EMSA) is “not detected”. The “TPA-induced NF-κB activation at 500 μM” value in [1] is recorded as “do not inhibit NF-κB activation”.

As for `C1=CCCC1` [cyclopentene, reference compound], in data set [5] (EMSA), the “HSF activation at 500 μM” value is “not detected”. Further, in data set [1], the “TPA-induced NF-κB activation at 500 μM” value is “do not inhibit NF-κB activation”.

As for `CCCCCC(O)C/C=C1/C(=O)C=CC1C/C=C\CCCC(=O)O` (stereo not drawn) [Δ^12-PGJ2, 9-deoxy-Δ^9,Δ^12-13,14-dihydro-PGD2], in data set [9], the “PR8 virus yield at concentrations higher than 6 μg/ml” value was “not detectable”; the “PR8 virus yield in HAU” value was found to be 0 HAU; the “effect on PR8 virus replication, comparison of prostaglandins” value was “most effective cyclopentenone prostaglandin”; the infectious virus titer is reported as 3.2+0.6×10^1 CPE5O % units/ml. In addition, in data set [9], the “inhibition of PR8 virus production” value is “greater than 95 % of control” and the “reduction of infectious virus titers” value is “more than 99 % of control”. Also, the “period for which antiviral activity is sustained” value in data set [9] (MDCK cells, 6 μg/ml) is “at least 72 hours p.i”. Moreover, in data set [9] (MDCK cells, single treatment with 6 μg/ml), the “inhibition of PR8 virus replication up to 72 h p.i.” value was “more than 95%”. In data set [10], the “time after treatment at which HSP70 synthesis was detectable” value amounted to 3 h and the “time for which HSP70 synthesis continued to be detectable” value was “at least 12 hours”. Moreover, the “synthesis of HSP90” value in data set [10] (MDCK cells, 6 μg/ml) was “enhanced”. Besides, the “synthesis of HSC70 and HSP70” value in data set [10] (MDCK cells, 6 μg/ml, SDS-PAGE and immunoblot) is on record as “markedly induced”. In addition, in data set [10] (uninfected MDCK cells, 6 μg/ml, 24 hours), the “protein synthesis in uninfected cells” value was “modest reduction”. Also, in data set [11], the PR8 protein synthesis entry is recorded as “dramatic reduction” and the “viral proteins by immunoblot analysis at 24 hours p.i.” value was “not detectable”. Moreover, the mouse survival result in data set [12] (1 μg/day/mouse i.p. for 7 days, FIG. 15A) is reported as “no effect on mouse survival”. For the same molecule, in data set [12] (5 μg/day/mouse i.p. daily for 7 days, FIG. 15B), the “survival of the animals” value worked out at 60%. The “mice survival on day 25 p.i.” value in data set [12] (5 μg/day/mouse i.p. for 7 days, FIG. 15A) is 50%. In data set [12] (5 μg/day/mouse i.p. on days 0, 2 and 4, FIG. 15B), the “survival of the animals” value is on record as “approximately 30%”. The “body weight at 7 days p.i.” value in data set [12] (PR8-infected mice, 7-day treatment, 5 μg/day/mouse) was found to be 18.25 ± 0.68 g. In addition, the “virus titer in the lungs” value in data set [13] is given as 0.07±0.03×10^4 CPE50% units/gr of lung tissue. In addition, in data set [14], the “uptake of precursors and DNA and RNA synthesis” value was “did not inhibit either the uptake of precursors or DNA and RNA synthesis”; the “virus-induced inhibition of cellular RNA synthesis” value is reported as “prevented”. The signs of toxicity result in [15] is listed as “did not show any sign of toxicity”. The “loss of body weight in infected animals” value in [15] (data not shown) is “reduced”.

Turning to “Nα-tosyl-lysine-chloromethylketone [TLCK]”, the “concentrations found to activate HSF” value in data set [5] (EMSA) lay within 30 to 75 µM. The “concentrations found to inhibit NF-κB activation” value in [1] (TPA 25 ng/ml) lay within 30 to 75 µM. The IC90 in data set [1] was found to be 135 µM.

Take “tosyl-L-phenylalanine-chloromethylketone [TPCK]”: the “concentrations found to activate HSF” value in data set [5] (EMSA) fell in the range of 12.5 to 25 µM. In addition, in data set [1] (TPA 25 ng/ml), the “concentrations found to inhibit NF-κB activation” value fell in the range of 12.5 to 25 µM. Besides, the IC90 in data set [1] came to 12 µM.
